Source: patent US8388953B2, “Method of increasing cathepsin B-induced cleavage of amyloid-β peptides” (The J. David Gladstone Institutes, priority 2006, dated 2013)

Experiments:
[1] = test system: cathepsin B activity in neuronal cells (N2a); assay: CatB activity assay in N2a cells treated with indomethacin; type: cell-based, murine; settings: indomethacin 25 μM-75 μM, 18-24 h
Protocol: (§1) Unless otherwise noted, all cell culture supplies, medium, and antibiotics were from Invitrogen (Carlsbad, Calif.). The murine neuronal cell line N2A was maintained in Dulbecco's modified Eagle's medium (DMEM) with 10% heat-inactivated fetal bovine serum (FBS), 100 U/ml penicillin G, and 100 μg/ml streptomycin at 37° C. in a humidified atmosphere containing 5% CO2. Before treatment, the medium was replaced with Neurobasal A medium supplemented with N2, and the cells were treated with fresh Aβ1-42 or Aβ1-40 at various concentrations for 24 h.
(§2) CatB activities in N2A cells or in hippocampus of hAPP mice and their littermate controls were quantified with the Innozyme Cathepsin B Activity Assay Kit (EMD Biosciences), according to the manufacturer's instructions. Cells or hippocampi were lysed in lysis buffer in the absence of proteinase inhibitors, preactivated with 4 mM cysteine, and incubated with the synthetic substrate Z-Arg-Arg AMC at 37° C. for 30 min. Released free AMC was determined fluorometrically as above. The enzymatic activities inhibited by CA074 were defined as CatB-specific activities. Protein concentrations were measured with the BCA protein assay kit (Pierce) and used to normalize CatB activities.
Neurobiatoma cell N2a cells were treated with indomethacin (25 μM-75 μM) for 18-24 h before being harvested for CatB activity assay.

[2] = test system: CatB in N2A cells; assay: N2A cells treated with Aβ peptides: CatB mRNA (quantitative RT-PCR) and CatB activity; type: cell-based, murine; settings: 20 μM; for CatB enzymatic activities / CatB mRNA levels: nonaggregated peptide, 24 h
Protocol: as §1
(§3) Aβ1-42 and Aβ1-40 were from rPeptide (Athens, Ga.). Aβ powders lyophilized with hexafluoroisopropanol were reconstituted in dry dimethylsulfoxide (Sigma) at a concentration of 5 mM. Aggregated Aβ1-42 was prepared based on protocols developed in previous studies (Dahlgren et al., 2002; Lambert et al., 1998). For protofibrillar Aβ1-42 preparations, DMEM/F-12 was added to achieve a final peptide concentration of 100 μM and incubated at 4° C. for 24 h. For fibrillar conditions, 10 mM HCl was added to achieve a final peptide concentration of 100 μM and incubated for 24 h at 37° C. For unaggregated conditions (fresh Aβ), the 5 mM Aβ in […] was diluted directly into cell-culture medium. For Aβ1-40 aggregation, Aβ1-40 was reconstituted in H2O at a concentration of 5 mg/ml, and incubated for one week at 37° C.
as §2
Expression of CatB was measured by quantitative RT-PCR. Total RNA in N2A cells was isolated with Trizol reagent (Invitrogen). After treatment with RNase-free DNase (Ambion) for 30 min at 37° C., total RNA (60 ng/ml) was reverse-transcribed with random hexamers and oligo d(T) primers. The expression of CatB relative to GAPDH was determined with SYBR green dye chemistry and an ABI Prism 7700 sequence detector (Applied Biosystems, Foster City, Calif.), as recommended by the manufacturer. Primer quality was verified by dissociation curve analysis, the slopes of standard curves, and reactions without RT. The following primers were used: mouse CatB (forward 5′-[…]-3′ (SEQ ID NO:7); reverse 5′-[…]-3′ (SEQ ID NO:8)) and mouse GAPDH (forward 5′-[…]-3′ (SEQ ID NO:9); reverse 5′-[…]-3′ (SEQ ID NO:10)).

[3] = test system: Aβ1-42; assay: In vitro cleavage assay of Aβ1-42 by purified CatB (SELDI-TOF MS, western blot, electron microscopy); type: biochemical
Protocol: as §3
Aβ1-42 and Aβ1-40 samples were characterized by negative-staining electron microscopy (JEOL 1230, Peabody, Mass.). Samples were prepared with “matured” carbon-coated grids and 2% potassium phosphotungstate, pH 6.5, using the drop method (Hamilton et al., 1980), and examined at 80 KV with a condenser aperture of 200 μm and an objective aperture of 50 μm. Images were obtained with a Gatan Ultrascan USC1000 digital camera (Gatan, Warrendale, Pa.).
(§4) Different amounts of purified CatB from human liver (Sigma) were preactivated with 4 mM cysteine at room temperature for 5 min in assay buffer, pH 6.0 or 7.0 after adjustment (Cathepsin B Activity Assay Kit, EMD Biosciences). Then, 20 ng of fresh, protofibrillar, or fibrillar Aβ1-42 was added and incubated at 37° C. for 120 min. All samples were run in parallel with and without the specific CatB inhibitor CA074. CatB-induced peptidase cleavage of Aβ1-42 was detected with mass spectrometry. Briefly, 5 μl of the reaction mixture was applied to an NP-20 normal-phase chip (Ciphergen Biosystems, Fremont, Calif.), and the spots were washed with water and air-dried. Twenty percent α-cyano-4-hydroxycinnamic acid in 50% acetonitrile, 0.5% trifluoroacetic acid (2×0.5 μl) was applied, and the chips were allowed to dry. Samples were analyzed in a PBS ITC SELDI-TOF mass spectrometer (Ciphergen) as an average of 160 shots for each spot. The system was calibrated daily with All-in-One peptide standards (Ciphergen) and synthetic Aβ1-42.
(§5) The products were also analyzed by western blotting on acid-urea gels with an anti-Aβ antibody (3D6) as described (DeMattos et al., 2001; Esposito et al., 2004) or on a Tricine SDS-PAGE. Briefly, 10 μl of the reaction mixture were resolved on 16% tricine gels and transferred to nitrocellulose membranes. Membranes were labeled with 21F12 (1:2000, Elan Pharmaceuticals), an antibody specific for Aβ1-42, to detect low MW Aβ1-42 oligomers. Since 21F12 was unable to detect higher MW assemblies, 3D6 (1:2000, Elan) was also used for immunoblotting. After incubation with an HRP-conjugated sheep anti-mouse IgG (1:2000; Amersham) secondary antibody, blots were developed with an ECL system (Perkin Elmer).

[4] = molecular target: T1, purified CatB from human liver (Homo sapiens, UniProt P07858); assay: Inhibition of CatB-induced Aβ1-42 cleavage by CA074 in the in vitro cleavage assay; type: biochemical
T1 construct: purified CatB from human liver (Sigma); purchased Sigma; host or cells: human liver (tissue-purified)
Protocol: as §4, §5

Molecule: COc1ccc2c(c1)c(CC(=O)O)c(C)n2C(=O)c1ccc(Cl)cc1 [indomethacin]
- CatB activity [1]: significant increase in CatB activity in a dose-dependent manner

Molecule: Aβ1-42: amyloid-β peptide 1-42 from rPeptide
- CatB enzymatic activities [2]: markedly increased
- CatB mRNA levels [2]: markedly increased

Molecule: Aβ1-40: amyloid-β peptide 1-40 from rPeptide; tested nonaggregated and preaggregated
- CatB enzymatic activities [2]: little or no effect
- CatB mRNA levels [2]: little or no effect
- CatB activity ([2]; preaggregated peptide): modest but significant increase

Molecule: CatB: purified CatB from human liver (Sigma), preactivated with cysteine
- amounts of high-molecular-weight Aβ assemblies ([3]; Tricine SDS-PAGE, CatB 1-2 μg/ml): marked decrease
- levels of low-MW Aβ1-42 oligomers and monomers ([3]; Tricine SDS-PAGE, antibody specific for Aβ1-42): also reduced
- proteolytic products from fresh (nonaggregated) Aβ1-42 ([3]; cell-free, pH 6.0, CatB 100-2500 ng/ml, SELDI-TOF): dose-dependent generation of Aβ1-40, Aβ1-38, and Aβ1-33
- amount of fibrillar structures of preformed Aβ1-42 fibrils ([3]; electron microscopy): did reduce the amount of fibrillar structures
- ability to cleave Aβ, especially nonaggregated (fresh) Aβ ([3]; neutral pH (~7.0)): markedly reduced
- cleavage of protofibrillar Aβ1-42 ([3]; pH 6.0): cleaved by CatB as efficiently as nonaggregated preparations

Molecule: CCCNC(=O)[C@H]1O[C@@H]1C(=O)N[C@H](C(=O)N1CCC[C@H]1C(=O)O)[C@@H](C)CC [CA074]
- effect of the inhibitor on CatB-induced decrease of Aβ assemblies ([4]; Tricine SDS-PAGE): significantly diminished such effects
- effect of the inhibitor on CatB-induced reduction of Aβ1-42 fibrils ([4]; electron microscopy): inhibition with CA074
- CatB-induced truncations of Aβ1-42 in the presence of the inhibitor ([4]; pH 6.0, SELDI-TOF): No truncations occurred
